From patent US9044464B2, “No-releasing guanidine-coxib anti-cancer agents” (Euclises Pharmaceuticals, Inc., priority 2012, dated 2015)

System: PGE2 levels
Test: Rat Air-Pouch Model for Acute Inflammation (carrageenan challenge, exudate volume and PGE2 by ELISA)
Format: in vivo, Sprague-Dawley rats
Details: for Volume (mL), collected exudate volume, mean / PGE2 (pg/mL) in exudate, mean: 0.01 mmol/kg oral gavage 2 h before intra-pouch 1% carrageenan, exudate collected 4 h after carrageenan; for Volume (mL), collected exudate volume, mean: 5 rats/group, vehicle mean 5.7; for PGE2 (pg/mL) in exudate, mean: ELISA, vehicle mean 4357.7; for reduction in exudate PGE2 release / reduction in collected exudate volume: 0.01 mmol/kg oral pretreatment, versus vehicle; for reduction in collected exudate volume: significant
Protocol: A study of celecoxib release from Example Compound 5 is assessed by measurement of PGE2 levels, which are indicative of inflammatory response.
Animals: Sprague-Dawley rats (Charles River Laboratories, R #3234, PO #738990, male, 160-180 g) were received, individually examined, and housed in cages of five rats each. The rats were ear notched for identification purposes.
Compounds and dosing solutions: The vehicle was prepared by dissolving 40 g (2-hydroxypropyl)-β-cyclodextrin (HP-β-CD, Sigma, Cat. 332593, lot MKBJ5858V) in 160 mL sterile saline for injection, USP (Hospira, lot 26-801-FW) making a […] solution which was filter sterilized (0.2 μm, Nalgene, Cat. 151-4020, lot 1095610). A 1% carrageenan solution was prepared by dissolving […] (Fluka, Cat. 22049, lot 1318338) in hot 60 mL sterile saline for injection, USP. This solution was stored at 4-8° C. Test compounds were dissolved in DMSO (Fisher Scientific, Cat. D128-500, lot 874999) to make 75 mM stocks. 0.25 mL of compound DMSO stocks were mixed with 12.5 mL of HP-β-CD solution at 50° C. (maximum DMSO concentration was 2% of the final volume of vehicle). Final concentration of all test compounds was 1.5 mM and compounds were dosed within 2 hours of preparation at 0.01 mmol/kg ([…] of test compound per rat).
Day 0—Air pouch initiation: The rats were anesthetized in a biological cabinet, the nape of the neck was cleansed with 70% isopropanol (Butler Schein Animal Health, Cat. 002498, lot 29EMS07104547) followed by 1% povidone-iodine solution (Ricca Chemical Co., Cat. 3955-16, lot 2205469). Twenty mL of sterile (0.22 μm, Millipore, Cat. SLGP033RS, lot R2KA55925, exp 08/2015) air was injected subcutaneously (SC) using a 23G×1½ inch needle fixed to a 20 mL syringe. The rats were returned to routine housing. No adverse reactions were observed.
Day 3—Air pouch maintenance: The rats were anesthetized in a biological cabinet, the nape of the neck was cleansed with 70% isopropanol followed by 1% povidone-iodine solution. Ten mL of sterile air was injected SC using a 23G×1½ inch needle fixed to a 20 mL syringe. The rats were returned to routine housing in clean cages. No adverse reactions were observed.
Day 6—Compound administration and carrageenan insult: At commencement of the study, each rat was weighed and sorted into treatment groups of 5 rats/group based upon average weight. Each rat was dosed orally via gavage at 6.809 mL/kg (1.6 mL/235 g) with their respective test material/vehicle. Two hours after test material/vehicle administration, the rats were injected with 1.0 mL of the room temperature 1% carrageenan saline solution into the air pouch. Four hours after carrageenan injection, the rats were anesthetized and 5 mL of the exudate buffer was injected into the air pouch. The pouch was gently massaged, the exudate immediately removed, and exudate volume recorded. The exudate was collected in a serum separator tube on an ice bath. The exudates were centrifuged (refrigerated) and an aliquot of the supernatant was stored in a labeled Eppendorf tube at −80° C.
Termination of Study: Animals were euthanized via CO2 asphyxiation at the completion of the in-life portion of this study and carcasses were disposed of according to standard protocols.
Data analysis: The exudate samples were thawed to room temperature and assayed by ELISA for PGE2 (R&D Systems, Cat. KGE004B, lot 307711). Statistical significance of treatments on mean exudate volumes are determined by comparison of means for treatment groups with vehicle group. Mean cytokine concentrations and standard deviations are determined for each group. Statistical significance of treatments on cytokine concentrations are determined for each compound group compared to vehicle group. Statistical significance (p-value) was calculated vs control groups by Student's t-Test.

SMILES	Volume (mL), collected exudate volume, mean	PGE2 (pg/mL) in exudate, mean	reduction in exudate PGE2 release	reduction in collected exudate volume
Cc1ccc(-c2cc(C(F)(F)F)nn2-c2ccc(S(=O)(=O)NC(=O)[C@@H](N)CCCNC(=N)N)cc2)cc1 [Example 5, (S)-2-Amino-5-guanidino-N-((4-(5-(p-tolyl)-3-(trifluoromethyl)-1H-pyrazol-1-yl)phenyl)sulfonyl)pentanamide]	4.3 mL	896.0 pg/mL	80%	24%
Cc1ccc(-c2cc(C(F)(F)F)nn2-c2ccc(S(N)(=O)=O)cc2)cc1 [celecoxib, 4-[5-(4-Methylphenyl)-3-(trifluoromethyl)-1H-pyrazol-1-yl]benzenesulfonamide]	4.6 mL	907.1 pg/mL	80%	19%
